Measurements from patent publication US11613545B2, “Macrocyclic compound serving as Wee1 inhibitor and applications thereof” (WUXI BIOCITY BIOPHARMACEUTICS CO., LTD., priority 2017, dated 2023).

Columns and labels:
[1] = system: P-gp (human MDR1); experiment: In vitro permeability test in MDR1-MDCK II cells (bidirectional transport); assay type: in vitro ADME, canine; settings: dog; for Papp A→B at 150 min, 2 μM: A to B, read-out: Penetration rate A to B; for Papp B→A at 150 min, 2 μM: B to A, read-out: Penetration rate B to A
Source text: (§1) The study used MDR1-MDCK II cells authorized by Piet Borst laboratory of the Netherlands Cancer Institute, which are a kind of Madin-Darby canine kidney cells transfected with human multi-drug resistance gene (MDR1). The cells can stably express the efflux transporter P glycoprotein (P-gp), so they are suitable for screening P-gp substrates or inhibitors, and predict that the compounds have high efflux barrier permeability such as duodenum, blood-brain barrier, hepatocyte nucleus and renal unit. We used the 5th to 35th generation MDR1-MDCK II cells for permeability study.
(§2) MDR1-MDCK II cells were cultured with α-MEM medium (α-Minimum Essential Media) under the conditions of 37±1° C., 5% CO2 and saturated relative humidity. After that, the cells were inoculated in a BD Transwell-96-well plate with an inoculation density of 2.3×10^5 cells/cm^2, and then the cells were placed in a carbon dioxide incubator for 4-7 days and used for transport experiments. The preparation method of α-MEM medium was as follows: the liquid nutrient base was prepared by dissolving powder (α-MEM powder from Gibco, Cat #: 11900) in pure water, and L-glutamine and NaHCO3 were added. 10% FBS (fetal bovine serum), 1% PS (dual antibiotic) and 1% NEAA were added to make it a complete medium when using.
(§3) Fenoterol and propranolol were tested at a concentration of 2 μM, administered unidirectionally (A-B direction), and duplicated in two wells.
(§4) The solution to be used was pre-incubated in a 37±1° C. water bath for 30 minutes. The dosing solution and the receiving solution were added to the corresponding well positions of the cell plate (75 and 250 μL for each top and bottom well, respectively) to start the bidirectional transport experiment. After loading, the cell plates were placed in an incubator at 37±1° C., 5% CO2 and saturated relative humidity for 150 minutes.
(§5) After vortexing, all samples were centrifuged at 3,220 g for 10 minutes. An appropriate volume of supernatant was transferred to the sample analysis plate, and analyzed by LC/MS/MS. If samples were not analyzed immediately after sealing, they were store at 2-8° C.
(§6) After the transport experiment was completed, the integrity of MDR1-MDCK II cells was tested using Lucifer Yellow Rejection Assay. After incubating the fluorescent yellow solution for 30 minutes, the fluorescent yellow samples were collected, and the relative fluorescence unit (RFU) of the fluorescent yellow in the sample was detected at 425/528 nm (excitation/emission) by the 2e plate reader.
(§7) Semi-quantitative analysis was used for the test products AZD1775 (or the compound of the present invention), the control products fenoterol, propranolol and digoxin. The ratio of the peak area of the analyte to the internal standard was used as the concentration of the reference substance.

[2] = system: human colon cancer LoVo cell subcutaneous xenograft tumor; experiment: In vivo pharmacodynamic study, LoVo subcutaneous xenograft tumor model; parameters: species or system BALB/c nude mice; settings: 40 mg/kg twice daily, after administration for 16 days
Procedure: (1) In vivo pharmacodynamic study of the compounds on human colon cancer LoVo cell subcutaneous xenograft tumor BALB/c nude mouse model
Experimental method: The selected experimental animal (provided by Shanghai Xipu'er-bikai Experimental Animal Co., Ltd.) were BALB/c nude mice, 6-8 weeks old, weighing 18-22 grams.
Human colon cancer LoVo cells were cultured in monolayer in vitro. The culture conditions were Ham's F-12 medium containing 10% fetal bovine serum, 100 U/mL penicillin, 100 μg/mL streptomycin and 2 mM glutamine, 37° C., 5% CO2 culture. Conventional digestion treatment with trypsin-EDTA was performed twice a week for passaging. When the cell saturation was 80%-90%, the cells were collected, counted, and inoculated. 0.1 mL (10×10^6) LoVo cells were subcutaneously inoculated into the right back of each nude mouse. When the average tumor volume reached 213 mm^3, they were divided into groups and the drug administration was started. Dosage: 40 mg/kg twice daily. The experimental index is to investigate whether the tumor growth is inhibited, delayed or cured. The diameter of the tumor was measured with vernier calipers twice a week. The calculation formula of tumor volume is: V=0.5a×b^2, a and b represent the long and short diameters of the tumor, respectively.
The antitumor efficacy of the compound was evaluated by TGI (%) or relative tumor proliferation rate T/C (%). […]

[3] = system: human pancreatic cancer BxPC-3 subcutaneously transplanted tumor; experiment: In vivo pharmacodynamic study, BxPC-3 subcutaneously transplanted tumor model; parameters: species or system BALB/c nude mice; settings: BxPC-3 xenograft, 25 mg/kg once a day, after administration for 27 days
Procedure: (2) In vivo pharmacodynamic study of the compound on human pancreatic cancer BxPC-3 BALB/c nude mouse subcutaneously transplanted tumor model
Experimental method: The selected experimental animal was BALB/c nude nude mice, 6-8 weeks old, weighing 18-22 grams.
The 10th generation of BxPC-3 cells were cultured in monolayer in vitro. The culture conditions were RPMI 1640 medium (manufacturer: gibco, article number: 22400-089) containing 10% fetal bovine serum, 100 U/mL penicillin and 100 μg/mL streptomycin, 37° C. 5% CO2 culture, passage was performed for 4 times. The passaging method was conventional digestion treatment with trypsin-EDTA twice a week. When the cell saturation reached 80%-90%, the cells were digested with trypsin-EDTA, counted, and resuspended in PBS at a density of 5×10^7 cells/mL. Each animal was inoculated with 0.1 mL (5×10^6) BxPC-3 cells in the right back. When the average tumor volume reached 153 mm^3, they were randomly divided into groups according to the tumor volume and the drug administration was started. Dosage: 25 mg/kg, once a day.
The experimental index is to investigate whether the tumor growth is inhibited, delayed or cured. The diameter of the tumor was measured with vernier calipers twice a week. The antitumor efficacy of the compound was evaluated by TGI (%) or relative tumor proliferation rate T/C (%). TGI (%) reflects the tumor growth inhibition rate. […]

[4] = system: CT26 mouse colon cancer transplanted tumor; experiment: In vivo anti-tumor efficacy, CT26 colon cancer transplanted tumor model; parameters: species or system BALB/c nude mice; settings: 30 mg/kg twice daily, after administration for 18 days
Procedure: (3) In vivo anti-tumor efficacy of the compounds on CT26 mouse colon cancer animal transplanted tumor model
Experimental method: The selected experimental animal was BALB/c nude mice, 7 weeks old, weighing 16-20 grams, female.
Cells: Mouse colon cancer CT26 cells (the Cell Bank of Typical Culture Preservation Committee of the Chinese Academy of Sciences) were cultured in monolayer in vitro. The culture conditions were RPMI-1640 medium containing 10% fetal bovine serum and 37° C. 5% CO2 incubator. Conventional digestion treatment with trypsin-EDTA was performed twice a week for passaging. When the cells were in the exponential growth phase and the saturation was 80%-90%, the cells were collected, counted, and inoculated. 0.1 mL DPBS (containing 3×10^5 CT26 cells) was subcutaneously inoculated into the right back of each mouse. When the average tumor volume reached 50-70 mm^3, randomized administration was performed according to tumor volume. Dosage: 30 mg/kg twice daily.
The experimental index is to investigate whether the tumor growth is inhibited, delayed or cured. The diameter of the tumor was measured with vernier calipers twice a week. The antitumor efficacy of the compound was evaluated by TGI (%) or relative tumor proliferation rate T/C (%). TGI (%) reflects the tumor growth inhibition rate.
After the final administration for 18 days, the experimental results are as follows: […]

[5] = target: T1, Wee1 (Homo sapiens, UniProt P30291); experiment: In vitro enzymatic inhibitory activity, Wee1 kinase (Eurofins, [γ-33P]-ATP filter assay); assay type: biochemical; settings: 10 μM [γ-33P]-ATP, 40 min at room temperature
T1 construct: purchased Eurofins
T1 sequence (P30291 whole entry): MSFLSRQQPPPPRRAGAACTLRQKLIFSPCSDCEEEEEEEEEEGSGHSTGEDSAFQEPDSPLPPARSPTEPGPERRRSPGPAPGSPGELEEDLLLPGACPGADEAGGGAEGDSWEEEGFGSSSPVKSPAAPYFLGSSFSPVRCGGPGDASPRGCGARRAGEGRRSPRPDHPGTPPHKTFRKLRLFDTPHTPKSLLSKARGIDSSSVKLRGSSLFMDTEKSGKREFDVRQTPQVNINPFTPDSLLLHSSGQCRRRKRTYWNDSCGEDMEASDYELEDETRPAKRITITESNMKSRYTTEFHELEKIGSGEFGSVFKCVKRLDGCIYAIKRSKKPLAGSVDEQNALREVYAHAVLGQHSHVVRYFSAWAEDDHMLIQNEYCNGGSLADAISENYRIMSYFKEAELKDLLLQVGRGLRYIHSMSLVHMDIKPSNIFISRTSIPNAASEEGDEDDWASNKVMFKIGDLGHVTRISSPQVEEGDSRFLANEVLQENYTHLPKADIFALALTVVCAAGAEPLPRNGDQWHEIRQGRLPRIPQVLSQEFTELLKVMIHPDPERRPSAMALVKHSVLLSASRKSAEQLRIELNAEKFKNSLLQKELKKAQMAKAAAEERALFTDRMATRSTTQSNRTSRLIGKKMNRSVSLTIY
Procedure: The experimental tests were conducted at Eurofins, and the results were provided by the company.
After adding the mixed solution of Mg^2+ and ATP, the reaction started and the reaction solution was incubated at room temperature for 40 min. 3% phosphate buffer was added to stop the reaction. 10 μL of the reaction solution was filtered on a continuous filter P30, washed three times with 75 mM phosphate buffer, once with methanol, and 5 minutes each time. After drying, the value was read by scintillation counting method.

[6] = system: P-gp (MDR1); experiment: In vitro permeability test in MDR1-MDCK II cells (bidirectional transport); assay type: in vitro ADME, canine; settings: dog
Source text: as §1, §2, §3, §4, §5, §6, §7

[7] = Pharmacokinetic evaluation in plasma after single intravenous and single oral administration; assay type: in vivo; settings: mouse, female Balb/c Nude mice
Procedure: Twelve mice (provided by Lingchang Biotech) were randomly divided into two groups, 6 females in each group, and samples were collected by cross blood collection. […] In the intravenous group, plasma samples were collected at 9 time points of 5 minutes, 15 minutes, 30 minutes, 1 hour, 2 hours, 4 hours, 6 hours, 8 hours, and 24 hours after administration; in the oral group, plasma samples were collected at 8 time points of 15 minutes, 30 minutes, 1 hour, 2 hours, 4 hours, 6 hours, 8 hours, and 24 hours after administration.

Papp A→B at 150 min, 2 μM [1] [×10⁻⁶ cm/s]	Papp B→A at 150 min, 2 μM [1] [×10⁻⁶ cm/s]	IC50 [5] [nM]	efflux ratio at 150 min, 2 μM [6]	clearance ([7]; 1 mg/kg intravenous, 10 mg/kg oral study, read-out: Clearance rate) [mL/min/kg]	AUC ([7]; 1 mg/kg intravenous, 10 mg/kg oral study, read-out: Concentration integral AUC) [µM·h]	half-life ([7]; 1 mg/kg intravenous, 10 mg/kg oral study, read-out: Half-life T1/2 (converted)) [h]	bioavailability ([7]; po, 10 mg/kg by gavage vs 1 mg/kg intravenous, read-out: Bioavailability F) [%]	SMILES	TGI (%) [2] [%]	TGI (%) [3] [%]	TGI (%) [4] [%]
2.83	29.3	–	–	–	–	–	–	C=CCn1c(=O)c2cnc(Nc3ccc(N4CCN(C)CC4)cc3)nc2n1-c1cccc(C(C)(C)O)n1 [AZD1775, reference compound]	26.73	24.3	66.43
4.55	17.4	29	3.82	33.5	6.04	1.69	62.4	CN1CCN(c2ccc(Nc3ncc4c(=O)n5n(c4n3)-c3cccc(n3)C(C)(O)CC/C=C\C5)cc2)CC1 (single isomer, unassigned) [Compound 1]	84.74	73.3	93.38
